Measured values reported in patent publication US20250275540A1, “USE OF PROTOPORPHYRINOGEN OXIDASE” (BEIJING DABEINONG BIOTECHNOLOGY CO., LTD., priority 2022, published 2025).

Tested on: transgenic maize plants
Assay: Detection of the herbicide tolerance of the transgenic maize plants
Assay type: in vivo
Conditions: for The grade of pesticide damage/plant: 0 / The grade of pesticide damage/plant: 1 / The grade of pesticide damage/plant: 2 / The grade of pesticide damage/plant: 3: 7 DAT
Description: The transformed Arabidopsis thaliana T1 plants were initially selected using glufosinate herbicide. The Arabidopsis thaliana T1 plants (PPOA-01) into which the PPOA-01 nucleotide sequence was introduced, the Arabidopsis thaliana T1 plants (PPOB-01) into which the PPOB-01 nucleotide sequence was introduced, the Arabidopsis thaliana T1 plants (PPOC-01) into which the PPOC-01 nucleotide sequence was introduced, the Arabidopsis thaliana T1 plants (PPOD-01) into which the PPOD-01 nucleotide sequence was introduced, the Arabidopsis thaliana T1 plants (PPOE-01) into which the PPOE-01 nucleotide sequence was introduced, the Arabidopsis thaliana T1 plants (PPOF-01) into which the PPOF-01 nucleotide sequence was introduced, the Arabidopsis thaliana T1 plants (PPO-AP-01) into which the PPO-AP-01 nucleotide sequence was introduced, and the Arabidopsis thaliana T1 plants (control vector) into which the control vector was introduced, the wild-type Arabidopsis thaliana plants (CK) (with 24 plants being included in each genotype) (18 days after sowing) were sprayed with saflufenacil at three concentrations (25 g ai/ha (one-fold field concentration, 1×), 100 g ai/ha (four-fold field concentration, 4×), and 0 g ai/ha (water, 0×)), oxyfluorfen at three concentrations (180 g ai/ha (one-fold field concentration, 1×), 720 g ai/ha (four-fold field concentration, 4×), and 0 g ai/ha (water, 0×)), and flumioxazin at three concentrations (60 g ai/ha (one-fold field concentration, 1×), 240 g ai/ha (four-fold field concentration, 4×), and 0 g ai/ha (water, 0×) to determine the tolerance of Arabidopsis thaliana to the herbicides. After 7 days of spraying (7 DAT), the damage level of each plant caused by the herbicide was evaluated according to the average of the damage levels (%) of plants (the average of the damage levels (%) of plants=the injured leaf area/the total leaf area×100%), i.e., the grade of pesticide damage: grade 0 means that the growth status of plants is essentially consistent with those sprayed with the blank solvent (water); grade 1 means that the average of the damage levels of plants is less than 10%; grade 2 means that the average of the damage levels of plants is greater than 10%; and grade 3 means that the average of the damage levels of plants is 100%. The plants having a growth status falling within grades 0 and 1 are classified as highly resistant plants; those having a growth status falling within grade 2 are classified as poorly resistant plants; and those having a growth status falling within grade 3 are classified as non-resistant plants.
The maize plants into which the PPOA-02 nucleotide sequence was introduced, the maize plants into which the PPOB-02 nucleotide sequence was introduced, the maize plants into which the PPOC-02 nucleotide sequence was introduced, the maize plants into which the PPOD-02 nucleotide sequence was introduced, the maize plants into which the PPOE-02 nucleotide sequence was introduced, the maize plants into which the PPOF-02 nucleotide sequence was introduced, the maize plants into which the PPO-AP-02 nucleotide sequence was introduced, the maize plants (control vector) into which the control vector was introduced, and the wild-type maize plants (CK) (with 16 plants being included in each genotype) (18 days after sowing) were taken and sprayed with saflufenacil at three concentrations (50 g ai/ha (two-fold field concentration, 2×), 100 g ai/ha (four-fold field concentration, 4×), and 0 g ai/ha (water, 0×)), oxyfluorfen at three concentrations (360 g ai/ha (two-fold field concentration, 2×), 720 g ai/ha (four-fold field concentration, 4×), and 0 g ai/ha (water, 0×), and flumioxazin at three concentrations (120 g ai/ha (two-fold field concentration, 2×), 240 g ai/ha (four-fold field concentration, 4×), and 0 g ai/ha (water, 0×) to determine the tolerance of maize plants to the herbicides. […]

[1] = genotype Control vector, 360 g ai/ha
[2] = genotype Control vector, 720 g ai/ha
[3] = genotype PPO-AP-02, 360 g ai/ha
[4] = genotype PPO-AP-02, 720 g ai/ha

CCOc1cc(Oc2ccc(C(F)(F)F)cc2Cl)ccc1[N+](=O)[O-] [oxyfluorfen, 2-chloro-1-(3-ethoxy-4-nitrophenoxy)-4-trifluoromethylbenzene]
The grade of pesticide damage/plant: 0 (genotype CK, 360 g ai/ha): 0 plant
The grade of pesticide damage/plant: 1 (genotype CK, 360 g ai/ha): 0 plant
The grade of pesticide damage/plant: 2 (genotype CK, 360 g ai/ha): 0 plant
The grade of pesticide damage/plant: 3 (genotype CK, 360 g ai/ha): 16 plant
The grade of pesticide damage/plant: 0 (genotype CK, 720 g ai/ha): 0 plant
The grade of pesticide damage/plant: 1 (genotype CK, 720 g ai/ha): 0 plant
The grade of pesticide damage/plant: 2 (genotype CK, 720 g ai/ha): 0 plant
The grade of pesticide damage/plant: 3 (genotype CK, 720 g ai/ha): 16 plant
The grade of pesticide damage/plant: 0 [1]: 0 plant
The grade of pesticide damage/plant: 1 [1]: 0 plant
The grade of pesticide damage/plant: 2 [1]: 0 plant
The grade of pesticide damage/plant: 3 [1]: 16 plant
The grade of pesticide damage/plant: 0 [2]: 0 plant
The grade of pesticide damage/plant: 1 [2]: 0 plant
The grade of pesticide damage/plant: 2 [2]: 0 plant
The grade of pesticide damage/plant: 3 [2]: 16 plant
The grade of pesticide damage/plant: 0 [3]: 0 plant
The grade of pesticide damage/plant: 1 [3]: 0 plant
The grade of pesticide damage/plant: 2 [3]: 8 plant
The grade of pesticide damage/plant: 3 [3]: 8 plant
The grade of pesticide damage/plant: 0 [4]: 0 plant
The grade of pesticide damage/plant: 1 [4]: 0 plant
The grade of pesticide damage/plant: 2 [4]: 0 plant
The grade of pesticide damage/plant: 3 [4]: 16 plant
tolerance to the herbicide (in words) (genotype PPO-AP-02, four-fold field concentration): no tolerance
share of the plants that exhibited no tolerance (genotype PPO-AP-02, two-fold field concentration): about 50%
The grade of pesticide damage/plant: 0 (genotype PPOA-02, 360 g ai/ha): 16 plant
The grade of pesticide damage/plant: 1 (genotype PPOA-02, 360 g ai/ha): 0 plant
The grade of pesticide damage/plant: 2 (genotype PPOA-02, 360 g ai/ha): 0 plant
The grade of pesticide damage/plant: 3 (genotype PPOA-02, 360 g ai/ha): 0 plant
The grade of pesticide damage/plant: 0 (genotype PPOA-02, 720 g ai/ha): 16 plant
The grade of pesticide damage/plant: 1 (genotype PPOA-02, 720 g ai/ha): 0 plant
The grade of pesticide damage/plant: 2 (genotype PPOA-02, 720 g ai/ha): 0 plant
The grade of pesticide damage/plant: 3 (genotype PPOA-02, 720 g ai/ha): 0 plant
The grade of pesticide damage/plant: 0 (genotype PPOB-02, 360 g ai/ha): 16 plant
The grade of pesticide damage/plant: 1 (genotype PPOB-02, 360 g ai/ha): 0 plant
The grade of pesticide damage/plant: 2 (genotype PPOB-02, 360 g ai/ha): 0 plant
The grade of pesticide damage/plant: 3 (genotype PPOB-02, 360 g ai/ha): 0 plant
The grade of pesticide damage/plant: 0 (genotype PPOB-02, 720 g ai/ha): 16 plant
The grade of pesticide damage/plant: 1 (genotype PPOB-02, 720 g ai/ha): 0 plant
The grade of pesticide damage/plant: 2 (genotype PPOB-02, 720 g ai/ha): 0 plant
The grade of pesticide damage/plant: 3 (genotype PPOB-02, 720 g ai/ha): 0 plant
The grade of pesticide damage/plant: 0 (genotype PPOC-02, 360 g ai/ha): 16 plant
The grade of pesticide damage/plant: 1 (genotype PPOC-02, 360 g ai/ha): 0 plant
The grade of pesticide damage/plant: 2 (genotype PPOC-02, 360 g ai/ha): 0 plant
The grade of pesticide damage/plant: 3 (genotype PPOC-02, 360 g ai/ha): 0 plant
The grade of pesticide damage/plant: 0 (genotype PPOC-02, 720 g ai/ha): 16 plant
The grade of pesticide damage/plant: 1 (genotype PPOC-02, 720 g ai/ha): 0 plant
The grade of pesticide damage/plant: 2 (genotype PPOC-02, 720 g ai/ha): 0 plant
The grade of pesticide damage/plant: 3 (genotype PPOC-02, 720 g ai/ha): 0 plant
The grade of pesticide damage/plant: 0 (genotype PPOD-02, 360 g ai/ha): 16 plant
The grade of pesticide damage/plant: 1 (genotype PPOD-02, 360 g ai/ha): 0 plant
The grade of pesticide damage/plant: 2 (genotype PPOD-02, 360 g ai/ha): 0 plant
The grade of pesticide damage/plant: 3 (genotype PPOD-02, 360 g ai/ha): 0 plant
The grade of pesticide damage/plant: 0 (genotype PPOD-02, 720 g ai/ha): 16 plant
The grade of pesticide damage/plant: 1 (genotype PPOD-02, 720 g ai/ha): 0 plant
The grade of pesticide damage/plant: 2 (genotype PPOD-02, 720 g ai/ha): 0 plant
The grade of pesticide damage/plant: 3 (genotype PPOD-02, 720 g ai/ha): 0 plant
The grade of pesticide damage/plant: 0 (genotype PPOE-02, 360 g ai/ha): 16 plant
The grade of pesticide damage/plant: 1 (genotype PPOE-02, 360 g ai/ha): 0 plant
The grade of pesticide damage/plant: 2 (genotype PPOE-02, 360 g ai/ha): 0 plant
The grade of pesticide damage/plant: 3 (genotype PPOE-02, 360 g ai/ha): 0 plant
The grade of pesticide damage/plant: 0 (genotype PPOE-02, 720 g ai/ha): 15 plant
The grade of pesticide damage/plant: 1 (genotype PPOE-02, 720 g ai/ha): 1 plant
The grade of pesticide damage/plant: 2 (genotype PPOE-02, 720 g ai/ha): 0 plant
The grade of pesticide damage/plant: 3 (genotype PPOE-02, 720 g ai/ha): 0 plant
The grade of pesticide damage/plant: 0 (genotype PPOF-02, 360 g ai/ha): 16 plant
The grade of pesticide damage/plant: 1 (genotype PPOF-02, 360 g ai/ha): 0 plant
The grade of pesticide damage/plant: 2 (genotype PPOF-02, 360 g ai/ha): 0 plant
The grade of pesticide damage/plant: 3 (genotype PPOF-02, 360 g ai/ha): 0 plant
The grade of pesticide damage/plant: 0 (genotype PPOF-02, 720 g ai/ha): 16 plant
The grade of pesticide damage/plant: 1 (genotype PPOF-02, 720 g ai/ha): 0 plant
The grade of pesticide damage/plant: 2 (genotype PPOF-02, 720 g ai/ha): 0 plant
The grade of pesticide damage/plant: 3 (genotype PPOF-02, 720 g ai/ha): 0 plant
tolerance to the herbicide (in words) (genotypes PPOA-02 to PPOF-02, four-fold field concentration): high-resistant tolerance
tolerance to the herbicide (in words) (genotypes PPOA-02 to PPOF-02, two-fold field concentration): high-resistant tolerance
